Columns and labels:
eNOS protein expression = test: eNOS protein detection in HUVEC by quantitative Western blotting; assay type: cell-based, human; conditions: 18 h incubation
Description: The effect of the compound (I) on eNOS-transcription was confirmed in a second assay based on eNOS protein detection. Primary human umbilical vein cord endothelial cells (HUVEC) were isolated and cultivated according to standard procedures. Confluent cells were incubated with compound (I) for 18 h and the effect on eNOS protein expression determined by a quantitative Western blotting procedure. After incubation of compound (I), HUVEC were lysed in ice-cold lysis buffer containing 10 mM Tris-HCl, pH 8.0, 1% SDS and protease inhibitors. The lysate was subjected to a standard denaturating polyacrylamid gel electropheresis and blotted to nitrocellulose membranes. Using a specific primary monoclonal antibody (Transduction Laboratories, UK) and alkaline phosphatase labelled secondary antibody (Jackson Labs), a specific eNOS protein band was visualized and quantified based on a chemifluorescence detection method.

ApoE deficient mice [1] = test: Improvement of coronary function in diseased ApoE deficient mice (isolated working heart); assay type: in vivo
Description: Old Male wild-type C57BL/6J mice (Charles River Wiga GmbH, Sulzfeld), and apolE deficient mice (C57BL/6J background, Jackson Laboratory, Bar Harbor, Me.) 6 month of age and weighing 28 to 36 g were used in the experiments. Mice were divided into 3 groups (C57BL/6, n=8; apoE control, n=8; apoE with compound (I), n=8) and received for 8 weeks either a standard rodent chow (containing 4% fat and 0.001% cholesterol) or a standard rodent chow+compound (I) (30 mg/kg/d p.o.).
Mice were anesthetized with sodium pentobarbitone (100 mg/kg i.p.), and the hearts were rapidly excised and placed into ice-cold perfusion buffer. The aorta was cannulated and connected to a perfusion apparatus (HUGO SACHS ELECTRONICS, Freiburg, Germany) which was started immediately at a constant perfusion pressure of 60 mm Hg. Hearts were perfused in a retrograde fashion with modified Krebs bicarbonate buffer, equilibrated with 95% O2 and 5% CO2 and maintained at 37.5° C.
A beveled small tube (PE 50) was passed through a pulmonary vein into the left ventricle and pulled through the ventricular wall, anchored in the apex by a fluted end, and connected to a tip-micromanometer (Millar 1.4 French). The left atrium was cannulated through the same pulmonary vein and the heart switched to the working mode with a constant preload pressure of 10 mm Hg and an afterload pressure of 60 mm Hg. Aortic outflow and atrial inflow were continuously measured using ultrasonic flow probes (HSE/Transonic Systems Inc.). Coronary flow was calculated as the difference between atrial flow and aortic flow. All hemodynamic data were digitized at a sampling rate of 1000·Hz and recorded with a PC using specialized software (HEM, Notocord).
Hearts were allowed to stabilize for 30 min. All functional hemodynamic data were measured during steady state, and during volume- and pressure loading.
Left ventricular function curves were constructed by varying pre-load pressure. For acquisition of preload curves, afterload was set at 60 mm Hg and preload was adjusted in 5 mm Hg steps over a range of 5 to 25 mm Hg. […]

ApoE deficient mice [2] = test: Inhibition of neointima formation and atherogenesis (femoral artery cuff), ApoE deficient mice; assay type: in vivo
From the text: (§1) ApoE and eNOS deficient mice (C57BL/6J background, Jackson Laboratory, Bar Harbor, Me.) were used. All animals were 10–12 weeks of age and weighed 22 to 28 g. Three days before surgery, mice were divided into 4 groups (apoE control, n=10–12; apoE with compound (I), n=10–12; eNOS control, n=10–12; eNOS with compound (I), n=10–12) and received either a standard rodent chow (containing 4% fat and 0.001% cholesterol; in the following designated as placebo group) or a standard rodent chow+compound (I) (10 or 30 mg/kg/d p.o.).
After 3 days treatment of ApoE deficient mice with compound (I), (10 mg/kg/d pressed in chow), animals were anesthetized with an intraperitoneal injection of pentobarbital (60 mg/kg) followed by an intramuscular injection of xylazin (2 mg/kg) and a cuff was placed around the femoral artery as described in Moroi et at. (J Clin Invest. 101:1225–32, 1998). Briefly, the left femoral artery was dissected. A non-occlusive 2.0 mm polyethylene cuff made of PE-50 tubing (inner diameter 0.56 mm, outer diameter 0.965 mm, Becton Dickinson, Mountain View, Calif.) was placed around the artery and tied in place with two 7–0 sutures. The right femoral artery was isolated from the surrounding tissues but a cuff was not placed. Treatment with compound (I) was continued for 14 days after surgery. Then the animals were sacrificed. The aortas were taken for determination of vascular eNOS expressions by quantitative western blotting. Both femoral arteries were harvested, fixed in formalin and embedded in paraffin. 20 cross sections (10 μm) were cut from the cuffed portion of the left femoral artery and from the corresponding segment of the right artery. Sections were subjected to standard hematoxylin and eosin staining. Morphometric analyses were performed using an image analysis computer program (LeicaQWin, Leica Imaging Systems, Cambridge, GB). For each cross section the area of the lumen, the neointima and the media were determined. […] The ratio between the area of the neointima and the area of the media was expressed as the neointima/media ratio.

ApoE deficient mice [3] = test: Anti-hypertensive effect in ApoE knockout mice (tail-cuff); assay type: in vivo; conditions: 30 mg/kg/d p.o. in chow, after 4 months treatment, placebo 115±2 mmHg, p<0.05
From the text: as §1
(§2) Blood-pressure was determined in conscious mice using a computerized tail-cuff system.

ApoE deficient mice [4] = test: Prevention of atherosclerotic plaque formation in chronic treatment; assay type: in vivo
From the text: as §1
ApoE deficient mice were treated for 16 weeks with compound (I) pressed in chow and finally sacrificed. Aortas were removed from each mouse, fixed in formalin and embedded in paraffin. Plaque formation was measured via lipid lesions formation in the aortas (from aortic arch to diaphragm) and was analyzed by oil red O staining. For quantifying the effect of the respective compound on vascular eNOS expression the […] were used in this experiment.

eNOS promoter = test: Activation of eNOS transcription (eNOS promoter-luciferase reporter); assay type: cell-based, human; conditions: 18 h incubation
Description: Activation of eNOS transcription was measured as described in detail in Li et al. “Activation of protein kinase C alpha and/or epsilon enhances transcription of the human endothelial nitric oxide synthase gene”, Mol. Pharmacol. 1998, 53: 630–637.
Briefly, a 3.5 kB long fragment 5′ of the starting codon of the eNOS gene was cloned, sequenced and cloned in firefly luciferase expression plasmids to monitor activation of the eNOS promoter by reporter gene activity. A human endothelial cell line stable transfected and expressing this promoter-reporter construct was used for compound testing. Cells were incubated for 18 h with the compound (I).
Prior to incubation of the cells, the compound (I) was dissolved in sterile DMSO. A final concentration of 0.5% DMSO in complete medium was obtained. Induction of reporter gene expression in these cells was measured using a standard luciferase assay system (Promega, Cat. No E150) according to the manufacturer's instructions. Luciferase induction in cells incubated with compound (I) were compared to those incubated with solvent alone. The ratio of both activities (transcription induction ratio, TIR) was plotted as a function of compound concentration. […] EC50 values of transcription induction ratios as a function of compound concentration were determined graphically.

eNOS deficient mice [5] = test: Blood pressure in eNOS deficient mice (tail-cuff); assay type: in vivo; conditions: similar dosing, after 4 weeks treatment
From the text: as §1, §2

eNOS deficient mice [6] = test: Femoral artery cuff model in eNOS deficient mice; assay type: in vivo; conditions: similar setup
From the text: as §1
After 3 days treatment of ApoE deficient mice with compound (I), (10 mg/kg/d pressed in chow), animals were anesthetized with an intraperitoneal injection of pentobarbital (60 mg/kg) followed by an intramuscular injection of xylazin (2 mg/kg) and a cuff was placed around the femoral artery as described in Moroi et at. (J Clin Invest. 101:1225–32, 1998). Briefly, the left femoral artery was dissected. […] The aortas were taken for determination of vascular eNOS expressions by quantitative western blotting. […] For each cross section the area of the lumen, the neointima and the media were determined. […] The ratio between the area of the neointima and the area of the media was expressed as the neointima/media ratio.

[7] = isolated hearts of ApoE deficient mice, 30 mg/kg/d p.o., 8 weeks

## O=C(NC1Cc2ccccc2C1)c1ccc(F)cc1 [compound (I), 4-fluoro-N-indan-2-yl benzamide]
eNOS protein expression
  effect on eNOS protein expression: confirmed
ApoE deficient mice [1]; isolated hearts of ApoE deficient mice treated 8 weeks with 30 mg/kg/d p.o., wildtype 4.95 ml/min
  coronary flow: 5 mL/min
ApoE deficient mice [1]; [7]
  incidence of ventricular arrhythmias: reduced
  pre-load dependent coronary flow: improved
ApoE deficient mice [2]; 10 mg/kg/d in chow, 3 days before to 14 days after cuff surgery
  reduction of neo-intima formation (factor): 2
ApoE deficient mice [2]; 10 mg/kg/d in chow, cuffed femoral artery, placebo 0.39±0.07
  neointima to media ratio: 0.170±0.04
ApoE deficient mice [2]; 10 mg/kg/d, aortas, quantitative western blotting
  vascular eNOS expression enhanced by a factor: 2.1
ApoE deficient mice [3]
  blood pressure: 92±5 mmHg
ApoE deficient mice [4]; 16 weeks treatment in chow, aortas, oil red O staining, placebo 13.3±2.6
  overall plaque size in % of total surface: 5.2±1%
ApoE deficient mice [4]; 16 weeks treatment, femoral arteries
  vascular eNOS expression up-regulation: 1.75 fold
eNOS promoter; human endothelial cell line stably transfected with eNOS promoter-luciferase construct, read-out: EC50 of transcription induction ratio
  EC50: 800 nM
eNOS promoter; human endothelial cell line, ratio versus solvent alone
  TIR(max) (maximum transcription induction ratio): 4.10
eNOS deficient mice [5]
  blood pressure reduction: No blood pressure reduction could be observed
eNOS deficient mice [6]
  effect on neointima formation / eNOS expression: No effect
